Format in all cases: cell-based
For one test, the target named is T1, GABA transporter 3 (Mus musculus, UniProt P31649).
T1 sequence (P31649 whole entry): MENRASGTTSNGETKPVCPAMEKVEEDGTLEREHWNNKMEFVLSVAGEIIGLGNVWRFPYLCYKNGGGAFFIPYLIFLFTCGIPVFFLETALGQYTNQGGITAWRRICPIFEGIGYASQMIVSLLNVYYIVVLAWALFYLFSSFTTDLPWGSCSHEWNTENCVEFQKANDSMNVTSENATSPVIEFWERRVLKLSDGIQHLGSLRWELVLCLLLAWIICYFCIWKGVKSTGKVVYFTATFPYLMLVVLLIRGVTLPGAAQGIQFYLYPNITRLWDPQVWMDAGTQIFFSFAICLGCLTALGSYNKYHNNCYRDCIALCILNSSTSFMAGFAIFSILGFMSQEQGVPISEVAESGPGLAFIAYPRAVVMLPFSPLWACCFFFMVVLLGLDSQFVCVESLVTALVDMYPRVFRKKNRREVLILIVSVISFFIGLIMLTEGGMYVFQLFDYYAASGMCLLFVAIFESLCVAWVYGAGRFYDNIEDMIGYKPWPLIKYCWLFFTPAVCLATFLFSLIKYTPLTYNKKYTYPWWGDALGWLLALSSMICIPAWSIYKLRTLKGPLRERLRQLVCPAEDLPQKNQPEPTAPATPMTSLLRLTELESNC
The experiment in a line: Inhibition of mouse GAT3 expressed in HEK293 cells assessed as decrease in [3H]GABA uptake preincubated for 25 mins followed by [3H]GABA addition measured after 4 mins by liquid scintillation counter method.

In the next test the target is T2, GABA transporter 4 (Mus musculus, UniProt P31650).
T2 sequence (P31650 whole entry): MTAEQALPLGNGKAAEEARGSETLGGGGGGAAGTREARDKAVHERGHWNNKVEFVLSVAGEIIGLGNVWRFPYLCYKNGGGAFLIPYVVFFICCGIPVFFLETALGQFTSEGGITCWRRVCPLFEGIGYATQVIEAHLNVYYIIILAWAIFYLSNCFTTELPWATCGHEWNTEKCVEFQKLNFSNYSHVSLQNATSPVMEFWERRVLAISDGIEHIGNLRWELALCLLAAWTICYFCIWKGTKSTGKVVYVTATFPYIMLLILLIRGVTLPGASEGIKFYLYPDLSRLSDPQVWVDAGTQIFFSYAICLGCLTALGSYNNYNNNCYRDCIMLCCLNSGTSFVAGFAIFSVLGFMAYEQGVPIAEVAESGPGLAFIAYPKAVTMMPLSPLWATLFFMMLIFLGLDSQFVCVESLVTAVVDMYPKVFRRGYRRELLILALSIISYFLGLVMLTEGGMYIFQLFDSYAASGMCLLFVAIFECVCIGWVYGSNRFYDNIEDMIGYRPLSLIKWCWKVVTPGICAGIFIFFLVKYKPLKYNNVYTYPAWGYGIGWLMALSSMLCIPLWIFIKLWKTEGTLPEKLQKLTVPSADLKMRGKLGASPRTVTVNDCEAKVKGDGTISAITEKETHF
The experiment in a line: Inhibition of mouse GAT4 expressed in HEK293 cells assessed as decrease in [3H]GABA uptake preincubated for 25 mins followed by [3H]GABA addition measured after 4 mins by liquid scintillation counter method.

Test [1] addresses T3, Sodium- and chloride-dependent betaine transporter (Homo sapiens, UniProt P48065).
T3 sequence (P48065 whole entry): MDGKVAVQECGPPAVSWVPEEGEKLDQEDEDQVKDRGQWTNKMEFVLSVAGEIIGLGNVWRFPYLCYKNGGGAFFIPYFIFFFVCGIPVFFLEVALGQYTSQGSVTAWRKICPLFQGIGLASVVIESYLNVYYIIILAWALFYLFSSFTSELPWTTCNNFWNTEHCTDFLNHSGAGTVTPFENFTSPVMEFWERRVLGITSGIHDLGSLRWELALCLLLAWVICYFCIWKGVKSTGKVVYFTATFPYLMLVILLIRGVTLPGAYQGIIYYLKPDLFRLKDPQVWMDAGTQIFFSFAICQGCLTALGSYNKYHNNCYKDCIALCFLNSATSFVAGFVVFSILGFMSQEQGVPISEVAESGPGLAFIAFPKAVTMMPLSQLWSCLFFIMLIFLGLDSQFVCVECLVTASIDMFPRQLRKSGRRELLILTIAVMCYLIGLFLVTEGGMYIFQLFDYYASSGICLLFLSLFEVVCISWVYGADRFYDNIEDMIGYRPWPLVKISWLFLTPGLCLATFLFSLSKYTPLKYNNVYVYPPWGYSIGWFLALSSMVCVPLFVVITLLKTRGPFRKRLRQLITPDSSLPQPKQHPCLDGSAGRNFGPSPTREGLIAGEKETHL
The experiment in a line: Inhibition of human BGT-1 expressed in thymidine kinase deficient mouse LM cells assessed as decrease in [3H]GABA uptake after 10 mins by scintillation counter method.

In test [2] the target is Sodium- and chloride-dependent GABA transporter 1 (Mus musculus) (UniProt P31648). The experiment in a line: Inhibition of mouse GAT1 expressed in HEK293 cells assessed as decrease in [3H]GABA uptake at 100 uM preincubated for 25 mins followed by [3H]GABA addition measured after 4 mins by liquid scintillation counter method.
Test [3] has as its target T4, GABA transporter 2 (Mus musculus) (UniProt P31651).
T4 sequence (whole entry): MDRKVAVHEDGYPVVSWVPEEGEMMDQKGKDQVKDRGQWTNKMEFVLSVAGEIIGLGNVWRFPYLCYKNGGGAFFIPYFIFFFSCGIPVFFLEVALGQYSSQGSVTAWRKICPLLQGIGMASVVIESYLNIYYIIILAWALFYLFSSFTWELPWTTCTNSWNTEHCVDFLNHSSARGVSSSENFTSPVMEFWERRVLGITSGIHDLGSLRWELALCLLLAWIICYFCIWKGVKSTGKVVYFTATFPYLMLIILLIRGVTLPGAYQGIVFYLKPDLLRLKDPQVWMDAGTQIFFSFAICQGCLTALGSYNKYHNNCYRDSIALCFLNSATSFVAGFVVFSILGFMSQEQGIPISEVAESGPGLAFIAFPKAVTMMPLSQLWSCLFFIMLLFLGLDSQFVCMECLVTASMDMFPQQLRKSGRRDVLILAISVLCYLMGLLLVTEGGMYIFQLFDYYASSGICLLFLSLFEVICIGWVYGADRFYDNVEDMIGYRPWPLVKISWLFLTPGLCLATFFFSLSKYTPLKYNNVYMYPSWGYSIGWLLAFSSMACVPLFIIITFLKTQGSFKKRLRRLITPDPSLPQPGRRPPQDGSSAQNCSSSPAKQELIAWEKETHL
The experiment in a line: Inhibition of mouse GAT2 expressed in HEK293 cells assessed as decrease in [3H]GABA uptake at 100 uM preincubated for 25 mins followed by [3H]GABA addition measured after 10 mins by liquid scintillation counter method.

In general, IC50 refers to the concentration that gives 50% inhibition. A word on the inhibition: it is the percentage by which the read-out fell short of the control.

Take `COc1ccc(C2(OCCN3CCCC(C(=O)O)C3)c3ccccc3-c3ccccc32)cc1` (stereo not given): the IC50 at GABA transporter 3 is 93.3 µM; at GABA transporter 4, 30.2 µM; in test [1] it was 27 µM. Also, the inhibition in test [2] is 73.1%; in test [3] it was 66.3%.

For the origin of these results see ChEMBL document CHEMBL3877251, “Synthesis and biological evaluation of a series of N-alkylated imidazole alkanoic acids as mGAT3 selective GABA uptake inhibitors” (Eur J Med Chem, 2016).
